Values quoted from earlier work, collected in PMC12682717, “Radiolabelling and bioequivalence of modified Tamoxifen solid lipid nanoparticles as a targeted chemotherapeutic drug” (Drug Delivery and Translational Research, 2025).
Structures can show the parent of a compound that is named as a salt.

Experiments:
[1] = design: method as in PMID 32151063, PMID 37906415; conditions: patients
[2] = no reference given

For `CC/C(=C(\c1ccccc1)c1ccc(OCCN(C)C)cc1)c1ccccc1` [TAM, Tamoxifen citrate], the “side effect: depression, irritability or vaginal dryness” value [1] is given as 35%, the “side effect: hot flashes” value [1] is given as 64% and the “side effect: mood swings” value [1] is given as 6%. For the same compound, the “side effect: sleep issues” value [1] was 36%, the “side effect: weight gain” value [1] was 6% and the “biopharmaceutical categorization system (BCS) class” value [2] was “class II”.
